One assay addresses T1, GST-JAK2(808-1132) (Homo sapiens, UniProt O60674).
T1 construct: GST-JAK2(808-1132); purchased Invitrogen (Carlsbad, USA) #4288
As to the kind of experiment: JAK2 kinase assay (Caliper mobility shift, LabChip 3000). The class given is biochemical. The procedure, abridged: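 Recombinant GST-JAK2(808-1132) kinase domain with FITC-labelled JAK3tide peptide substrate and ATP; 60 min at 30 °C, EDTA stop. Substrate/product ratio read by microfluidic mobility shift; compounds at 8 final concentrations, 10 to 0.003 μM.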

Assay [1] deals with JAK2-dependent nuclear translocation of STAT5-GFP in U-2 OS osteosarcoma cells. Nature of the assay: STAT5 nuclear translocation assay (Cellomics), rhEpo stimulated U-2 OS STAT5-GFP cells. The class given is cell-based. The following applies: Homo sapiens, U2OS; STAT5 translocation pathway. An excerpt: The medium-throughput (96-well format) cellular automated fluorescence microscopy Cellomics assay can be routinely used to assess the functional activation of Janus Kinases (JAKs), based on the nuclear translocation of their substrate, Signal Transducer and Activator of Transcription (STAT). Nuclear translocation can be monitored either in HT1080 fibrosarcoma cells stably transfected with STAT1 fused to Green Fluorescence Protein (GFP) or in U-2 OS osteosarcoma cells stably transfected with STAT5 fused to Green Fluorescence Protein (GFP). Stimulation of HT1080 cells with interferon-γ (IFN-γ) results in JAK1/JAK2-dependent nuclear translocation of STAT1-GFP, whereas stimulation of U-2 OS cells with recombinant human erythropoietin (rhEpo) results in JAK2-dependent nuclear translocation of STAT5-GFP, both of which can be quantified using the Cellomics Cyto/NucTrans software package. This assay may be used to provide an assessment of the nuclear-cytoplasmic differential (NCD) of STAT-GFP using Hoechst dye to define the boundaries of the nucleus.
U-2 OS osteosarcoma cells may be obtained from ATCC and can be cultured in standard RPMI medium supplemented with 10% FCS and 2 mM L-glutamine. Cells can be stably transfected with STAT5a-GFP using Lipofectamine following the manufacturers' protocol. 24 hours after transfection the medium can be replaced and selected in 400 μg/ml Geneticin. Subsequently, cells can be stably transfected with EpoR using Lipofectamine following the manufacturers' protocol. 24 hours after transfection the medium can be replaced and cells selected in 100 μg/ml Hygromycin B.
Compounds can be dissolved in DMSO to a final stock concentration of 10 mM and stored as aliquots at 4° C. Compounds may be pre-diluted in 100% DMSO at 10 mM, 3 mM 1 mM, 0.3 mM, 0.1 mM, 0.03 mM, 0.01 mM and 0.003 mM. Subsequently, compounds may be diluted in medium and added in 50 μl to the cells. The final compound concentrations tested may be 10 μM, 3 μM 1 μM, 0.3 μM, 0.1 μM, 0.03 μM, 0.01 μM and 0.003 μM and the final DMSO concentration can be 0.1%.
U-2 OS may be seeded at a cell density of 12,000 cells per well in clear-bottom black 96-well Packard View-Plates™. The following day, medium can be removed and replaced with medium containing either the vehicle (DMSO) or increasing concentrations of test compounds for 30 minutes at 37° C. Cells can then be stimulated for 1 hour by adding 10 μl per well of 50 U/ml rhEpo to obtain 5 U/ml of rhEpo as the final concentration. Following treatments, cells can fixed and processed as described above.
The plates can be read on a Cellomics® ArrayscanII automated fluorescence microscope plate reader equipped with a Mercury-Xenon white light illumination source and a Zeiss Axiovert inverted microscope, using the XF100 dichroic/emission filter cube and matching excitation filters, 10× magnification, and a 0.3 numerical aperture objective. Image acquisition and analysis can be performed using a customized protocol based on the ‘NuclearTranslocation’ Bioapplication. For each well, multiple images (fields) can be acquired until a minimum of 1000 cells are counted using two 2 channels: Channel 1 (Hoechst)=focus+nuclear mask, Channel 2 (GFP)=signal quantification in mask areas as outlined below. Nuclei may be first identified based on the Hoechst staining and a mask generated for each nucleus that then serves as a template to generate a circle (eroded inwards by 1 pixel) and a 3 pixel-wide collar-like ring (off-set outwards by 1 pixel), in which the nuclear and cytoplasmic intensity of GFP, respectively, are quantified in the corresponding channel. High content analysis yields numerous measurements per cell and the GFP intensity differential between the nuclear and the cytoplasmic masks may be chosen as a measure of sub-cellular STAT-GFP relocation. The resulting values may be averaged for all cells in the well to return a single measurement plus standard deviation. […]

What is called IC50 is the concentration needed to halve the response being measured.

T1 sequence (O60674 808-1132): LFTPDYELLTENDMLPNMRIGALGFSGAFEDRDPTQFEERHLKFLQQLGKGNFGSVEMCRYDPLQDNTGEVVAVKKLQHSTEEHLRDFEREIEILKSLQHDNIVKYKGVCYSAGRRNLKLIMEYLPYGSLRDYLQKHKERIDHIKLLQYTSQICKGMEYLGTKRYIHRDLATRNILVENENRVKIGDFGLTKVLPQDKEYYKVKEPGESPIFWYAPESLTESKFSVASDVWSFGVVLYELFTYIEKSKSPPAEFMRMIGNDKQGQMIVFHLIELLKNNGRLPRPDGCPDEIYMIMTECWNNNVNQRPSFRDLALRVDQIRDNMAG

Turning to `Cc1ccc(Nc2ncc3ccn(-c4cc(F)c(CN5CCS(=O)(=O)CC5)c(F)c4)c3n2)cc1CN1CCC(O)C1` (racemic) [Example 425, 1-(5-{7-[4-(1,1-Dioxido-thiomorpholin-4-ylmethyl)-3,5-difluoro-phenyl]-7H-pyrrolo[2,3-d]pyrimidin-2-ylamino}-2-methyl-benzyl)-pyrrolidin-3-ol], the IC50 on GST-JAK2(808-1132) was at most 3 nM; in assay [1], 3.6 nM.

For the compound `O=C1CN(c2cc(Nc3ncc4ccn(-c5cc(F)c(CN6CCOCC6)c(F)c5)c4n3)ccn2)CCN1` [Example 500, 4-{4-[7-(3,5-Difluoro-4-morpholin-4-ylmethyl-phenyl)-7H-pyrrolo[2,3-d]pyrimidin-2-ylamino]-pyridin-2-yl}-piperazin-2-one], the values for the IC50 (on GST-JAK2(808-1132); in assay [1]) were at most 3 nM and 16 nM, respectively.

In the case of `C[C@@H]1CN(c2ncc(Nc3ncc4ccn(-c5cc(F)c(CN6CCOCC6)c(F)c5)c4n3)cc2C#N)C[C@H](C)N1` [Example 490, 5-[7-(3,5-Difluoro-4-morpholin-4-ylmethyl-phenyl)-7H-pyrrolo[2,3-d]pyrimidin-2-ylamino]-2-(cis-3,5-dimethyl-piperazin-1-yl)-nicotinonitrile], the results for the IC50 (at GST-JAK2(808-1132); in assay [1]) were 3.4 nM and 14 nM, respectively.

As to `Cc1cc(Nc2ncc3ccn(-c4cc(F)c(CN5CCS(=O)(=O)CC5)c(F)c4)c3n2)cc(C)c1OCCN1CCOCC1` [Example 432, [3,5-Dimethyl-4-(2-morpholin-4-yl-ethoxy)-phenyl]-{7-[4-(1,1-dioxido-thiomorpholin-4-ylmethyl)-3,5-difluoro-phenyl]-7H-pyrrolo[2,3-d]pyrimidin-2-yl}-amine], the IC50 on GST-JAK2(808-1132) is at most 3 nM; in assay [1], 0.4 nM.

Consider `CC(C)(C)NS(=O)(=O)c1ccc(-n2ccc3cnc(Nc4ccc(OCCN5CCCC5)cc4)nc32)cc1` [Example 363, N-tert-Butyl-4-{2-[4-(2-pyrrolidin-1-yl-ethoxy)-phenylamino]-pyrrolo[2,3-d]pyrimidin-7-yl}-benzenesulfonamide], for which the IC50 at GST-JAK2(808-1132) was 3.2 nM; in assay [1], 11 nM.

As to `Cc1ccc(Nc2ncc3ccn(-c4cc(F)c(CN5CCOCC5)c(F)c4)c3n2)cc1CN1[C@H]2CC[C@@H]1CC2` [Example 436, [3-(7-Aza-bicyclo[2.2.1]hept-7-ylmethyl)-4-methyl-phenyl]-[7-(3,5-difluoro-4-morpholin-4-ylmethyl-phenyl)-7H-pyrrolo[2,3-d]pyrimidin-2-yl]-amine], the IC50 was at most 3 nM at GST-JAK2(808-1132) and 6.1 nM in assay [1].

As to `COC1CCN(Cc2cc(Nc3ncc4ccn(-c5cc(F)c(CN6CCOCC6)c(F)c5)c4n3)ccc2C)C1` (racemic) [Example 417, [7-(3,5-Difluoro-4-morpholin-4-ylmethyl-phenyl)-7H-pyrrolo[2,3-d]pyrimidin-2-l]-[3-(3-methoxy-pyrrolidin-1-ylmethyl)-4-methyl-phenyl]-amine], the figures for the IC50 (on GST-JAK2(808-1132); in assay [1]) were at most 3 nM and 5 nM, respectively.

In the case of `Fc1cc(-n2ccc3cnc(Nc4ccc(OC5CCNC5)nc4)nc32)cc(F)c1CN1CCOCC1` (racemic) [Example 519, [7-(3,5-Difluoro-4-morpholin-4-ylmethyl-phenyl)-7H-pyrrolo[2,3-d]pyrimidin-2-yl]-[6-(pyrrolidin-3-yloxy)-pyridin-3-yl]-amine], the IC50 at GST-JAK2(808-1132) was determined as 3.6 nM; in assay [1], 60.5 nM.

For `C[C@@H]1CN(c2ccc(Nc3ncc4ccn(-c5ccc(S(=O)(=O)NC(C)(C)C)cc5)c4n3)cn2)C[C@H](C)N1` [Example 351, N-tert-Butyl-4-{2-[6-(cis-3,5-dimethyl-piperazin-1-yl)-pyridin-3-ylamino]-pyrrolo[2,3-d]pyrimidin-7-yl}-benzenesulfonamide], the IC50 at GST-JAK2(808-1132) amounted to 4.3 nM; in assay [1] it was 1.3 nM.

Consider `Cc1ccc(Nc2ncc3ccn(-c4cc(F)c(CN5CCS(=O)(=O)CC5)c(F)c4)c3n2)cc1CN1CCNCC1` [Example 428, {7-[4-(1,1-Dioxido-thiomorpholin-4-ylmethyl)-3,5-difluoro-phenyl]-7H-pyrrolo[2,3-d]pyrimidin-2-yl}-(4-methyl-3-piperazin-1-ylmethyl-phenyl)-amine], for which the results for the IC50 (at GST-JAK2(808-1132); in assay [1]) were at most 3 nM and 10.7 nM, respectively.

For `Cc1ccc(Nc2ncc3ccn(-c4cc(F)c(CN5CCOCC5)c(F)c4)c3n2)cc1CN1CCN(CCN(C)C)C(=O)C1` [Example 410, 4-{5-[7-(3,5-Difluoro-4-morpholin-4-ylmethyl-phenyl)-7H-pyrrolo[2,3-d]pyrimidin-2-ylamino]-2-methyl-benzyl}-1-(2-dimethylamino-ethyl)-piperazin-2-one], the IC50 on GST-JAK2(808-1132) was at most 3 nM; in assay [1], 8.3 nM.

In the case of `Cc1cc(Nc2ncc3ccn(-c4cc(F)c(CN5CCOCC5)c(F)c4)c3n2)cnc1N1CCNCC(F)(F)C1` [Example 512, [6-(6,6-Difluoro-[1,4]diazepan-1-yl)-5-methyl-pyridin-3-yl]-[7-(3,5-difluoro-4-morpholin-4-ylmethyl-phenyl)-7H-pyrrolo[2,3-d]pyrimidin-2-yl]-amine], the figures for the IC50 (at GST-JAK2(808-1132); in assay [1]) were at most 3 nM and 14 nM, respectively.

As to `CN1CCN(c2ccc(Nc3ncc4ccn(-c5ccc6c(c5)CC(=O)N6C)c4n3)cn2)CC1` [Example 448, 1-Methyl-5-{2-[6-(4-methyl-piperazin-1-yl)-pyridin-3-ylamino]-pyrrolo[2,3-d]pyrimidin-7-yl}-1,3-dihydro-indol-2-one], the IC50 is 5 nM at GST-JAK2(808-1132) and 7.4 nM in assay [1].

As to `Cc1cc(Nc2ncc3ccn(-c4cc(F)c(CN5CCOCC5)c(F)c4)c3n2)cnc1N1CCNC(C)(C)C1=O` [Example 493, 1-{5-[7-(3,5-Difluoro-4-morpholin-4-ylmethyl-phenyl)-7H-pyrrolo[2,3-d]pyrimidin-2-ylamino]-3-methyl-pyridin-2-yl}-3,3-dimethyl-piperazin-2-one], the IC50 on GST-JAK2(808-1132) was at most 3 nM; in assay [1] it was 104 nM.

In the case of `C[C@@H]1CN(c2ncc(Nc3ncc4ccn(-c5cc(F)c(CN6CCOCC6)c(F)c5)c4n3)cc2Cl)C[C@H](C)N1` [Example 489, [5-Chloro-6-(cis-3,5-dimethyl-piperazin-1-yl)-pyridin-3-yl]-[7-(3,5-difluoro-4-morpholin-4-ylmethyl-phenyl)-7H-pyrrolo[2,3-d]pyrimidin-2-yl]-amine], the half-maximal inhibitory concentration (IC50) at GST-JAK2(808-1132) was 0.7 nM; in assay [1] it was 12 nM.

For `Cc1ccc(Nc2ncc3ccn(-c4ccc(C(=O)N5CCOCC5)c(F)c4)c3n2)cc1CN1CCNC(C)(C)C1` [Example 386, (4-{2-[3-(3,3-Dimethyl-piperazin-1-ylmethyl)-4-methyl-phenylamino]-pyrrolo[2,3-d]pyrimidin-7-yl}-2-fluoro-phenyl)-morpholin-4-yl-methanone], the IC50 at GST-JAK2(808-1132) was 110 nM; in assay [1], 101 nM.

`CN1CCOC[C@@H]1c1ccc(Nc2ncc3ccn(-c4cc(F)c(CN5CCOCC5)c(F)c4)c3n2)cc1` [Example 509, [7-(3,5-Difluoro-4-morpholin-4-ylmethyl-phenyl)-7H-pyrrolo[2,3-d]pyrimidin-2-yl]-[4-((S)-4-methyl-morpholin-3-yl)-phenyl]-amine]: the results for the IC50 (at GST-JAK2(808-1132); in assay [1]) were under 3 nM and 43.1 nM, respectively.
